Laboratory results as given in ChEMBL document CHEMBL5096216, “Rational Design, Synthesis, and Biological Evaluation of Novel S1PR2 Antagonists for Reversing 5-FU-Resistance in Colorectal Cancer” (J Med Chem, 2022).
Activity calls are given as the source filed them. The rule behind the calls is not given here.

Columns and labels:
SW620/5-FU [1] = assay: cells; conditions: Homo sapiens, 48 h
[2] = Toxicity in nude mouse xenografted with human SW620/5-FU cells assessed as morphological changes in kidney at 1 to 10 mg/kg/day, iv by hematoxylin-eosin staining based analysis; format: organism-based; conditions: in vivo, dose 1-10 mg/kg/day
SW620/5-FU [3] = assay: Induction of apoptosis in human SW620/5-FU cells assessed as viable cells at 20 uM incubated for 24 hrs in presence of 5-FU by Annexin-V/PI staining based flow cytometry assay (reference value: 94.3%); format: functional; conditions: read-out: Activity
SW620/5-FU [4] = assay: Antitumor activity against human SW620/5-FU cells xenografted in nude mouse assessed as tumor wight at 1 mg/kg/day, iv in presence of 5-FU (reference value: 1.3 +/-0.6 g); format: functional
HT-29 [5] = assay: Reversal of 5-FU resistance in human HT-29 cells assessed as fold reduction in 5-Fluorouracil IC50 at 2 uM incubated for 48 hrs; format: functional
HT-29 [6] = assay: cells; conditions: Homo sapiens, HT-29, 48 h
Description: Reversal of 5-FU resistance in human HT-29 cells assessed as reduction in 5-Fluorouracil IC50 at 5 uM incubated for 48 hrs (Rvb = 2768.36 +/- 89.25 %)

SW620/5-FU [7] = assay: Induction of apoptosis in human SW620/5-FU cells assessed as early apoptotic cells at 20 uM incubated for 24 hrs in presence of 5-FU by Annexin-V/PI staining based flow cytometry assay (reference value: 2.73%); format: functional
[8] = target: Sphingosine 1-phosphate receptor 1 (Homo sapiens, UniProt P21453); assay: Binding affinity to S1PR1 (unknown origin) assessed as dissociation constant by surface plasmon resonance analysis
Sphingosine 1-phosphate receptor 1, sequence (P21453 whole entry): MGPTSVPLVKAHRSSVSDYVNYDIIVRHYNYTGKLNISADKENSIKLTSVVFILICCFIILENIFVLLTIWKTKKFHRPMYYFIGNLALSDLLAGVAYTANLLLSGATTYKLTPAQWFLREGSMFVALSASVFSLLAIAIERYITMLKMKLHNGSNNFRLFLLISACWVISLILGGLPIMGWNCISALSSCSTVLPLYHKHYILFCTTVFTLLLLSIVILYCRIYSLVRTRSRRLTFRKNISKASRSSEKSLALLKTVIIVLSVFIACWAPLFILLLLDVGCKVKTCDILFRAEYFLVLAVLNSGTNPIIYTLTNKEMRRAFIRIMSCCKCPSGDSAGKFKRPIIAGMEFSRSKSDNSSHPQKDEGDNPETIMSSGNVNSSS

[9] = Toxicity in nude mouse xenografted with human SW620/5-FU cells assessed as morphological changes in lung at 1 to 10 mg/kg/day, iv by hematoxylin-eosin staining based analysis; format: organism-based; conditions: in vivo, dose 1-10 mg/kg/day
SW620/5-FU [10] = assay: Downregulation of DPD expression in human SW620/5-FU cells incubated for 12 hrs by Western blot analysis; format: functional, cell-based; conditions: dose 2.5-20 µM, DDE = dose-dependent effect
HT-29 [11] = assay: Downregulation of DPD expression in 5-FU resistant human HT-29 cells incubated for 12 hrs by Western blot analysis; format: functional, cell-based; conditions: dose 2.5-20 µM, DDE = dose-dependent effect
SW620/5-FU [12] = assay: Downregulation of H3K27me3 expression in human SW620/5-FU cells at 10 uM incubated for 72 hrs by Western blot analysis; format: functional, cell-based
[13] = Metabolic stability in rat liver homogenate assessed as half life at 1 mg/ml incubated for 48 hrs by HPLC analysis; format: ADME, tissue-based
SW620/5-FU [14] = assay: Antitumor activity against human SW620/5-FU cells xenografted in nude mouse assessed as tumor volume at 5 mg/kg/day, iv measured on day 1 in presence of 5-FU (reference value: 105 +/- 14 mm3); format: functional; conditions: time 1 day
Mus musculus [15] = assay: In vivo inhibition of tumor DPD expression in human SW620/5-FU cells xenografted in nude mouse at 1 to 10 mg/kg/day by immunohistochemistry analysis; format: functional, organism-based; conditions: dose 1-10 mg/kg/day
NCM460 = assay: Cytotoxicity against human NCM460 cells assessed as reduction in cell viability incubated for 48 hrs in presence of 5-FU by MTT assay; format: functional, cell-based; conditions: NCM460, 48 h
SW620/5-FU [16] = assay: Antitumor activity against human SW620/5-FU cells xenografted in nude mouse assessed as tumor wight at 10 mg/kg/day, iv in presence of 5-FU (reference value: 1.3 +/- 0.6 g); format: functional
HCT-116 [17] = assay: Reversal of 5-FU resistance in human HCT-116 cells overexpressing DPD assessed as fold reduction in 5-Fluorouracil IC50 at 2 uM incubated for 48 hrs; format: functional
[18] = Metabolic stability in human plasma assessed as compound remaining at 1 mg/ml measured after 48 hrs by HPLC analysis; format: ADME, cell-free; conditions: read-out: Stability
[19] = Metabolic stability in human plasma assessed as half life at 1 mg/ml incubated for 48 hrs by HPLC analysis; format: ADME, cell-free
[20] = Cytotoxicity against human NCM460 cells assessed as reduction in cell viability incubated for 48 hrs by MTT assay; format: toxicity, cell-based
HCT-116 [21] = assay: Reversal of 5-FU resistance in human HCT-116 cells overexpressing DPD assessed as fold reduction in 5-Fluorouracil IC50 at 5 uM incubated for 48 hrs; format: functional
HT-29 [22] = assay: Downregulation of JMJD3 expression in 5-FU resistant human HT-29 cells incubated for 12 hrs by Western blot analysis; format: functional, cell-based; conditions: dose 2.5-20 µM, DDE = dose-dependent effect
SW620/5-FU [23] = assay: Induction of apoptosis in human SW620/5-FU cells at 20 to 40 uM in presence of 5-FU by Hochest33342 staining based assay; format: functional, cell-based; conditions: dose 20-40 µM
[24] = target: Sphingosine 1-phosphate receptor 2 (Homo sapiens, UniProt O95136); assay: Inhibition of FBAL stimulated S1PR2 in human SW620/5-FU cells incubated for 72 hrs by Western blot analysis; format: cell-based; conditions: dose 5-15 µM, DDE = dose-dependent effect
Sphingosine 1-phosphate receptor 2, sequence (O95136 whole entry): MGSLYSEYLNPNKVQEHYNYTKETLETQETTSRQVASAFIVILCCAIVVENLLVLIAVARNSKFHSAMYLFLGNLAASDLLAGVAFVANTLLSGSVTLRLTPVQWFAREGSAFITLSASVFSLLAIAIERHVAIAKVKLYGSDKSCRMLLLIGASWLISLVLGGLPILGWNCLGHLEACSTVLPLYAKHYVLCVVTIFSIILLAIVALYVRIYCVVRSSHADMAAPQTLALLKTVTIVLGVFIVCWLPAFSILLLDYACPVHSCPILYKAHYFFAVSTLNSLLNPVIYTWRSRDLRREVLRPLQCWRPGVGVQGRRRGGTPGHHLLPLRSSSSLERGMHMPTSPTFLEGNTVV

HT-29 [25] = assay: cells; conditions: Homo sapiens, HT-29, 48 h; remark: listed apart in the source
Description: Reversal of 5-FU resistance in human HT-29 cells assessed as reduction in 5-Fluorouracil IC50 at 2 uM incubated for 48 hrs (Rvb = 2768.36 +/- 89.25 %)

[26] = target: Sphingosine 1-phosphate receptor 5 (Homo sapiens, UniProt Q9H228); assay: Binding affinity to S1PR5 (unknown origin) assessed as dissociation constant by surface plasmon resonance analysis
Sphingosine 1-phosphate receptor 5, sequence (Q9H228 whole entry): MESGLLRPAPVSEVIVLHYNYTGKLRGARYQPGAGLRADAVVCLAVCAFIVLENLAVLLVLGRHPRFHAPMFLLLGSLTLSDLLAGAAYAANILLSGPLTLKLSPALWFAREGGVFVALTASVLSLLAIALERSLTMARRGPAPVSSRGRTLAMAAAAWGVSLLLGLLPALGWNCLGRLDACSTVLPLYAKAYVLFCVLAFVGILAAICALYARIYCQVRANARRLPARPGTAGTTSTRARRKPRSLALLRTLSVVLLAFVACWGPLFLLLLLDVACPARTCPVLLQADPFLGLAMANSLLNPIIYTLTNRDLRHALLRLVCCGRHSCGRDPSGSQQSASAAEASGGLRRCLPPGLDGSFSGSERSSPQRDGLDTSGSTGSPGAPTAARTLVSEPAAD

[27] = target: T1, Sphingosine 1-phosphate receptor 4 (Homo sapiens, UniProt O95977); assay: Binding affinity to S1PR4 (unknown origin) assessed as dissociation constant by surface plasmon resonance analysis
T1 sequence (O95977 whole entry): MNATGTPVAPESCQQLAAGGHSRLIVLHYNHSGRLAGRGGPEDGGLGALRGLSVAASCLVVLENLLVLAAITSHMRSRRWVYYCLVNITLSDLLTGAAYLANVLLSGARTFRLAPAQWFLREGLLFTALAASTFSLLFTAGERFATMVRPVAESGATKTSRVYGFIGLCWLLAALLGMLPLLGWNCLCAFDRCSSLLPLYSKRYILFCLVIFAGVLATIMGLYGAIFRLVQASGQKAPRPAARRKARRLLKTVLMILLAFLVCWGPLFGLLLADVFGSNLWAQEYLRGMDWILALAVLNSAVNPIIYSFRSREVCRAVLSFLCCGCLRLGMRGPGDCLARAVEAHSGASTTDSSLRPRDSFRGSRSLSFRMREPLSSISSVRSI

[28] = Toxicity in nude mouse xenografted with human SW620/5-FU cells assessed as morphological changes in heart at 1 to 10 mg/kg/day, iv by hematoxylin-eosin staining based analysis; format: organism-based; conditions: in vivo, dose 1-10 mg/kg/day
[29] = target: Sphingosine 1-phosphate receptor 3 (Homo sapiens, UniProt Q99500); assay: Binding affinity to S1PR3 (unknown origin) assessed as dissociation constant by surface plasmon resonance analysis
Sphingosine 1-phosphate receptor 3, sequence (Q99500 whole entry): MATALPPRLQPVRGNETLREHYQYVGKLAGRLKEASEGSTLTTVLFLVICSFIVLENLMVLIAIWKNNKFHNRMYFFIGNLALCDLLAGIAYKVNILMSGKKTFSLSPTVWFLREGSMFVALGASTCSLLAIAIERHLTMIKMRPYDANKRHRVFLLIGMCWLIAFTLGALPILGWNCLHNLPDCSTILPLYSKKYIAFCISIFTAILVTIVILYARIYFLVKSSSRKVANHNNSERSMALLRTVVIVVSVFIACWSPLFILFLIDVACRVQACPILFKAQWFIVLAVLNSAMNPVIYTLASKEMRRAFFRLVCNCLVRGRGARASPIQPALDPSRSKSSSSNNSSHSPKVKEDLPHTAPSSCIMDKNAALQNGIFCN

HCT-116 [30] = assay: Antiproliferative activity against human HCT-116 cells overexpressing DPD assessed as reduction in cell viability incubated for 48 hrs by MTT assay; format: functional, cell-based; conditions: HCT-116, 48 h
SW620/5-FU [31] = assay: Antitumor activity against human SW620/5-FU cells xenografted in nude mouse assessed as tumor growth inhibition at 5 mg/kg/day, iv in presence of 5-FU; format: functional; conditions: read-out: TGI
Mus musculus [32] = assay: In vivo inhibition of liver DPD expression in human SW620/5-FU cells xenografted in nude mouse at 1 to 10 mg/kg/day by Western blot analysis; format: functional, organism-based; conditions: dose 1-10 mg/kg/day

CCC(CC)CN1CCN(C(=O)Nc2cc(Oc3ccc(F)cc3)cc(Oc3ccc(C(=O)NC)cc3)c2)CC1
IC50 (SW620/5-FU [1]): 36.8 µM | Activity [2]: Non-Toxic | viability at 20 µM (SW620/5-FU [3]): 64.2% | Activity (SW620/5-FU [4]): 0.6 g | fold change (FC) (HT-29 [5]): 66 | IC50 (HT-29 [6]): 21.8 µM | Activity (SW620/5-FU [7]): 28.6% | Kd [8]: > 0.1 µM | Activity [9]: Non-Toxic | Activity (SW620/5-FU [10]): Dde | Activity (HT-29 [11]): Dde | Activity (SW620/5-FU [12]): Active | half-life at 1 mg/ml [13]: > 48 h | Activity (SW620/5-FU [14]): 103 mm3 | inhibition (Mus musculus [15]): Active | IC50 (NCM460): > 100 µM | Activity (SW620/5-FU [16]): 0.3 g | fold change (FC) (HCT-116 [17]): 33 | remaining at 48 h, 1 mg/ml [18]: 96.4% | half-life at 1 mg/ml [19]: > 48 h | IC50 at 48 hrs [20]: > 100 µM | fold change (FC) (HCT-116 [21]): 41 | Activity (HT-29 [22]): Dde | Activity (SW620/5-FU [23]): Active | inhibition [24]: Dde | IC50 (HT-29 [25]): 42.1 µM | Kd [26]: > 0.1 µM | Kd [27]: > 0.1 µM | Activity [28]: Non-Toxic | Kd [29]: > 0.1 µM | IC50 (HCT-116 [30]): > 100 µM | inhibition in vivo at 5 mg/kg/day (SW620/5-FU [31]): 66.8% | inhibition (Mus musculus [32]): Active
